Test results reported in ChEMBL document CHEMBL1201862, “PubChem BioAssay data set” (2004).
Several values for one entry are separate records, joined by “and”; a condition that tells them apart may be missing. Equal values may be shown once. Activity calls are given as the source filed them.

Assays:
[1] = HIV-1 Env-mediated cell fusion inhibitors, dose response, CCR5-tropic Env (AID 2279); format: functional
Cytochrome P450 2D6 = Cytochrome P450 2D6 (Homo sapiens, UniProt P10635); experiment: qHTS Assay for Inhibitors and Substrates of Cytochrome P450 2D6. [Related pubchem assays: 410 ]; format: ADME; conditions: read-out: Potency
[2] = Counterscreen for IDE inhibitors: Luminescence-based cell-based high throughput dose response assay to identify compounds that are cytotoxic to HEK cells. [Related pubchem assays: 434962 (Primary screen (IDE inhibitors in singlicate)), 449730 (Counterscreen (Cytotoxicity in triplicate)), 435028 (Confirmation (IDE inhibitors in triplicate)) …; format: functional; conditions: HEK293
Insulin-degrading enzyme = molecular target: T1, Insulin-degrading enzyme (Homo sapiens, UniProt P14735); experiment: Dose Response: Fluorescence polarization-based cell-based high throughput dose response assay for inhibitors of insulin-degrading enzyme (IDE). [Related pubchem assays: 434962 (Primary screen (IDE inhibitors in singlicate)), 449730 (Counterscreen (Cytotoxicity in triplicate)), 435028 (Confirmation (IDE inhibitors in triplicate)), 434984 (Summary …; format: functional
T1 sequence (P14735 whole entry): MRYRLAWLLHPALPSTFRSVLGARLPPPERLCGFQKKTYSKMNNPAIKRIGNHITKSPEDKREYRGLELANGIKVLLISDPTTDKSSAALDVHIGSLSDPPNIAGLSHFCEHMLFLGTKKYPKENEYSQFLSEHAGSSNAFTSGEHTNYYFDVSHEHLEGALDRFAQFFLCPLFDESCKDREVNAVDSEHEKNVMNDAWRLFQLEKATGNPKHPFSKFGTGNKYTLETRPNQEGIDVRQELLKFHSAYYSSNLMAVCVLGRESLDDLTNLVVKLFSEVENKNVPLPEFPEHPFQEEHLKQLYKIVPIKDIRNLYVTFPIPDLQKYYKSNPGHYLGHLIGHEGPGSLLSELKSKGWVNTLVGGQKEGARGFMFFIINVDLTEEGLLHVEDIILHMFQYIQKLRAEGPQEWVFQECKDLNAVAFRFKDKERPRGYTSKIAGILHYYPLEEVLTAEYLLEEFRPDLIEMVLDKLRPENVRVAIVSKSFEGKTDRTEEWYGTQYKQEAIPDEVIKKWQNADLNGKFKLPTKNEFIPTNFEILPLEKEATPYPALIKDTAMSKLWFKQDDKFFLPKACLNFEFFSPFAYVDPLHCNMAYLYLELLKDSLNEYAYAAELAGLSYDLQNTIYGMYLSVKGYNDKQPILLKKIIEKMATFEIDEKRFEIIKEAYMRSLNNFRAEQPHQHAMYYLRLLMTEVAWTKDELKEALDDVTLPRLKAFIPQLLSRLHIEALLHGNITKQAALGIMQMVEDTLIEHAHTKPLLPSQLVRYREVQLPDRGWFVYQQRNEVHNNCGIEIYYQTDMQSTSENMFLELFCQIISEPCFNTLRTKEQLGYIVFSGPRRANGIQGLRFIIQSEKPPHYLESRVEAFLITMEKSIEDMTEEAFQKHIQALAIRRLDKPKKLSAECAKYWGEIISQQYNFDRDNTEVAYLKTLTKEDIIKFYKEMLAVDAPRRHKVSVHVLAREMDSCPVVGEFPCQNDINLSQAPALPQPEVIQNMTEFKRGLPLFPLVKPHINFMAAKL

Leucine aminopeptidase = molecular target: T2, Leucine aminopeptidase (Plasmodium falciparum 3D7, UniProt Q8IL11); experiment: P. falciparum M17LAP inhibitors, primary screen, biochemical, fluorogenic H-Leu-NHMec substrate, 1536-well (AID 1619); format: functional
T2 sequence (Q8IL11 whole entry): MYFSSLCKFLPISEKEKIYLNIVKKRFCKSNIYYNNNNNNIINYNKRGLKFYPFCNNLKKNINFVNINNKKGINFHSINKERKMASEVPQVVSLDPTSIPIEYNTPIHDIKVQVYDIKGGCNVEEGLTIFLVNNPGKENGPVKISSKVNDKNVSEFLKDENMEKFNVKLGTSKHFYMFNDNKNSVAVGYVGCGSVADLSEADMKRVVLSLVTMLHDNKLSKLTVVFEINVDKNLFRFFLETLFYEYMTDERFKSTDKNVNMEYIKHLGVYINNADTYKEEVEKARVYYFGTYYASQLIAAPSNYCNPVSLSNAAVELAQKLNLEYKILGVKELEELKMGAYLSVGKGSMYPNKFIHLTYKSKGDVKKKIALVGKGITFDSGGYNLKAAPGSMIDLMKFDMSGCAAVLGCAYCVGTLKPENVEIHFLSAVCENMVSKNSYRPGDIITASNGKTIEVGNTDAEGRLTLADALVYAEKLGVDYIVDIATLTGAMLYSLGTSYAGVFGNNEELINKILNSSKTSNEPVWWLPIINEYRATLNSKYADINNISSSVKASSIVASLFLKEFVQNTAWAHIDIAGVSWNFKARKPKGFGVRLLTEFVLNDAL

[3] = molecular target: T3, Voltage-gated N-type calcium channel alpha-1B subunit/Amyloid beta A4 precursor protein-binding family A member 1 (Homo sapiens, UniProt Q00975+Q02410); format: protein assay
[4] = molecular target: G-protein coupled receptor 55 (Homo sapiens, UniProt Q9Y2T6); experiment: GPR55 antagonists blocking LPI-driven arrestin recruitment, primary screen, imaging, U2OS, beta-arrestin-GFP, LPI agonist (AID 2013); format: functional;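 also: antagonist potency measured as reduced agonist-driven arrestin aggregation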
[5] = molecular target: T3, Voltage-gated N-type calcium channel alpha-1B subunit/Amyloid beta A4 precursor protein-binding family A member 1; format: protein assay; remark: listed apart in the source
[6] = microbe, parasite or virus in culture; format: functional; conditions: Mycobacterium tuberculosis
[7] = molecular target: Induced myeloid leukemia cell differentiation protein Mcl-1 (Homo sapiens, UniProt Q07820); format: functional
Beta-galactosidase = Beta-galactosidase (Escherichia coli, UniProt Q8VNN2); experiment: beta-galactosidase enzyme inhibitors and activators, dose response, artefact control for CCR6 antagonist project, biochemical, E. coli enzyme, set 3 (AID 504712); format: functional
[8] = molecular target: Eukaryotic translation initiation factor 4E (Mus musculus, UniProt P63073); experiment: eIF4E–eIF4G protein interaction inhibitors, dose response, biochemical, TR-FRET (AID 855); format: functional;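 also: potency for disrupting eIF4E binding to eIF4GI seen as loss of FRET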
Nonstructural protein 1 = Nonstructural protein 1 (Influenza A virus, UniProt Q194T2); format: functional, Influenza A virus (A/California/07/2009(H1N1))
[9] = molecular target: T4, Replicative DNA helicase DnaB (Mycobacterium tuberculosis, UniProt P9WMR3); experiment: DnaB intein splicing inhibitors, dose response, biochemical, cell-free fluorescence (AID 449749); format: functional
T4 sequence (P9WMR3 whole entry): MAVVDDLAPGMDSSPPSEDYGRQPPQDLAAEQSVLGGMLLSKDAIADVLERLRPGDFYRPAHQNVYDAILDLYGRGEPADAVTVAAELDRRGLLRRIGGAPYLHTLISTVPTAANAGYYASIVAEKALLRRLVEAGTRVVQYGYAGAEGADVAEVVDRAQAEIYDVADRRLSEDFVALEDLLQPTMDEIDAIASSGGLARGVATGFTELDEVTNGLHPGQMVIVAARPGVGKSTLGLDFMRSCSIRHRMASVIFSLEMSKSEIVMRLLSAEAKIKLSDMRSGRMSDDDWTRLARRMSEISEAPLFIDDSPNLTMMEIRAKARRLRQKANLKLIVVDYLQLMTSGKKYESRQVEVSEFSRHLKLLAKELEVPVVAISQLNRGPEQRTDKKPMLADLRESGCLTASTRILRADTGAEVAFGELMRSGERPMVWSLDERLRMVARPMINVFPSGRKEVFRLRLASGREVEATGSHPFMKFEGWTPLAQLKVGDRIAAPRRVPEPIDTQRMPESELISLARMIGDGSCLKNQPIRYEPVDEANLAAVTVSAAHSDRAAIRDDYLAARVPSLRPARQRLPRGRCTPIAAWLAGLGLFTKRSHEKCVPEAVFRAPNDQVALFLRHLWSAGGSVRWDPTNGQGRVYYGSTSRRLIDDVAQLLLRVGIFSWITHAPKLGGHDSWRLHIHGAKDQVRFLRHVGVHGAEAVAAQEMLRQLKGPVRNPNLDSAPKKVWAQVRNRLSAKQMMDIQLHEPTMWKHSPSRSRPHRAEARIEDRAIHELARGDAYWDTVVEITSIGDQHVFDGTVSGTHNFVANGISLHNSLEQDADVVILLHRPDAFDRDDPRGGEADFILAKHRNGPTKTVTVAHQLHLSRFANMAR

Protein RecA = molecular target: T5, Protein RecA (Mycobacterium tuberculosis, UniProt P9WHJ3); experiment: Fluorescence Cell-Free Homogeneous Dose Retest to Identify Inhibitors of RecA-Intein Splicing Activity. [Related pubchem assays (depositor defined):AID2097, AID2223, AID489010, AID492950]; format: functional
T5 sequence (P9WHJ3 whole entry): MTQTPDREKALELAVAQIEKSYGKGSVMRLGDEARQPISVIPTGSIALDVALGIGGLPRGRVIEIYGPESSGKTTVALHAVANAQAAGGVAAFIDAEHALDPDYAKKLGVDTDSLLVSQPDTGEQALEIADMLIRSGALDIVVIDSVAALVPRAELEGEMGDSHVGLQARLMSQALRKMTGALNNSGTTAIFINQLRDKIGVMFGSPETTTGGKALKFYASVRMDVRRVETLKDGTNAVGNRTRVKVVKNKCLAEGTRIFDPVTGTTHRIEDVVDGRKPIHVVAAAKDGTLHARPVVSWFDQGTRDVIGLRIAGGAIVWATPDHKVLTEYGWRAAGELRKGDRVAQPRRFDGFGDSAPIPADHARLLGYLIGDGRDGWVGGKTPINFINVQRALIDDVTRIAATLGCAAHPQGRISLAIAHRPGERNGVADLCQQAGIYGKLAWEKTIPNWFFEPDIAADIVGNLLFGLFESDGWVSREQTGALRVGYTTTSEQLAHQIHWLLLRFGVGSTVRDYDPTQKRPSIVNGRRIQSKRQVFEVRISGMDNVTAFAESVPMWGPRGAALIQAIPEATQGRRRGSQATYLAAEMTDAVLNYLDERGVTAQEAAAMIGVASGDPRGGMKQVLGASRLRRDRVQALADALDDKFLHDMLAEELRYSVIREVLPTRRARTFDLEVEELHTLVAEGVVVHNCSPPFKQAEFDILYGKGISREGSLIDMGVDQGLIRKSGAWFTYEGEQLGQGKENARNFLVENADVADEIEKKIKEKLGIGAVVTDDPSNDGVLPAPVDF

T3 sequence (Q00975 whole entry): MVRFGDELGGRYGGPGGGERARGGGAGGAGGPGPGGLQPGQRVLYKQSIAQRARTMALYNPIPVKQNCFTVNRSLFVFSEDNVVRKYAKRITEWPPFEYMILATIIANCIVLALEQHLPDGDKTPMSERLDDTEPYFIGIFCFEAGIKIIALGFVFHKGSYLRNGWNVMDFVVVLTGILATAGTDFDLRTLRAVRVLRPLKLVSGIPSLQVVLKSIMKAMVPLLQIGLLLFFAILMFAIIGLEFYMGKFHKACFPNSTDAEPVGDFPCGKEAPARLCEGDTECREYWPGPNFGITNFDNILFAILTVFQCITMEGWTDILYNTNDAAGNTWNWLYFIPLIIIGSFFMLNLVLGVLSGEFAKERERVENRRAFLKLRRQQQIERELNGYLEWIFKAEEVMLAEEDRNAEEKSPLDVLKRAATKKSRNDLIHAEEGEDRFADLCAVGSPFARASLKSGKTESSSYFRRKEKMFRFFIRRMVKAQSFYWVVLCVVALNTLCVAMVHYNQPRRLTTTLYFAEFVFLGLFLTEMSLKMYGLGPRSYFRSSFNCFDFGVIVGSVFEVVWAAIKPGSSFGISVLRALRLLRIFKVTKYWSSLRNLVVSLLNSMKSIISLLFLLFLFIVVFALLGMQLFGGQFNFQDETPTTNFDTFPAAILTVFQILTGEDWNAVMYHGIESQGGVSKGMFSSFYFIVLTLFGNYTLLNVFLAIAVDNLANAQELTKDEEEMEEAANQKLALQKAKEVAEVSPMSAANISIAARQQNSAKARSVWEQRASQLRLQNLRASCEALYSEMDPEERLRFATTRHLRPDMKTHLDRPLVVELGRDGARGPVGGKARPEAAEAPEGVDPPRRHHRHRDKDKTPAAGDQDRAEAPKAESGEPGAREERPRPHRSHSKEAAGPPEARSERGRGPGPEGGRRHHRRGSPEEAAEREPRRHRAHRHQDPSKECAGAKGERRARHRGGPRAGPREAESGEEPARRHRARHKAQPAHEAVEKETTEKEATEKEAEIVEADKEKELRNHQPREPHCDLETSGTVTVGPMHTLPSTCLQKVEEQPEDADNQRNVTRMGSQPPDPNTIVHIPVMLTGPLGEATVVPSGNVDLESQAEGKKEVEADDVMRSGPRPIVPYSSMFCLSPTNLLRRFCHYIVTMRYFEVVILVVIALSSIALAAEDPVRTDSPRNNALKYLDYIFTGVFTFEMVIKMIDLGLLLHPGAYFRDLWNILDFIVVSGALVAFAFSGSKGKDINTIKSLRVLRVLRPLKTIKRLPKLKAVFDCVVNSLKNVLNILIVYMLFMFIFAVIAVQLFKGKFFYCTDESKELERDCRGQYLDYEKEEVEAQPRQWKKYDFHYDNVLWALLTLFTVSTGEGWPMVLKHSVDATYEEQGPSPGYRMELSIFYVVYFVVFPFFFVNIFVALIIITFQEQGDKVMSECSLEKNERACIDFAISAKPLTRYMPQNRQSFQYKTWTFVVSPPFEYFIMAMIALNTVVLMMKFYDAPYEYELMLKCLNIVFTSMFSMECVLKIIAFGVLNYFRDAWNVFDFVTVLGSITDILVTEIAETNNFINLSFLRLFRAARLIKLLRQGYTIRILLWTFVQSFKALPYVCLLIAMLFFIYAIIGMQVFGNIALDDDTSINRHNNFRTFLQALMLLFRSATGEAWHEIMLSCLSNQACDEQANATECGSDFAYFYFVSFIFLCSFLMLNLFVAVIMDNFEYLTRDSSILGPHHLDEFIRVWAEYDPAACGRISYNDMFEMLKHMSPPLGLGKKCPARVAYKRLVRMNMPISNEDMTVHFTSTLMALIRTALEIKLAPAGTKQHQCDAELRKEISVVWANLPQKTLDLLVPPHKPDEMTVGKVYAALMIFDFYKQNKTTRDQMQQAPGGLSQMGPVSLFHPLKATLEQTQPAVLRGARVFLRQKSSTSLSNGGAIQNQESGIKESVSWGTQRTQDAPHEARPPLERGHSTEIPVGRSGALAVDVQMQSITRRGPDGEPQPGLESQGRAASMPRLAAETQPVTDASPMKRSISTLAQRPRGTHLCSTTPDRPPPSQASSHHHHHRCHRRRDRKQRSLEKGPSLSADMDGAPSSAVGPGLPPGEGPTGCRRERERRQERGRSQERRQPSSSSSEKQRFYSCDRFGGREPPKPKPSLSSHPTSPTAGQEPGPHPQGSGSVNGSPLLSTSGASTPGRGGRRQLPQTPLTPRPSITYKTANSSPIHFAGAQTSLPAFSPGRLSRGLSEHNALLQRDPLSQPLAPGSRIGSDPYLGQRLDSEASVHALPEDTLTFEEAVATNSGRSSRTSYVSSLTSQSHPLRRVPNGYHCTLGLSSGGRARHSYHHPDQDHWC
T3 sequence (Q02410 whole entry): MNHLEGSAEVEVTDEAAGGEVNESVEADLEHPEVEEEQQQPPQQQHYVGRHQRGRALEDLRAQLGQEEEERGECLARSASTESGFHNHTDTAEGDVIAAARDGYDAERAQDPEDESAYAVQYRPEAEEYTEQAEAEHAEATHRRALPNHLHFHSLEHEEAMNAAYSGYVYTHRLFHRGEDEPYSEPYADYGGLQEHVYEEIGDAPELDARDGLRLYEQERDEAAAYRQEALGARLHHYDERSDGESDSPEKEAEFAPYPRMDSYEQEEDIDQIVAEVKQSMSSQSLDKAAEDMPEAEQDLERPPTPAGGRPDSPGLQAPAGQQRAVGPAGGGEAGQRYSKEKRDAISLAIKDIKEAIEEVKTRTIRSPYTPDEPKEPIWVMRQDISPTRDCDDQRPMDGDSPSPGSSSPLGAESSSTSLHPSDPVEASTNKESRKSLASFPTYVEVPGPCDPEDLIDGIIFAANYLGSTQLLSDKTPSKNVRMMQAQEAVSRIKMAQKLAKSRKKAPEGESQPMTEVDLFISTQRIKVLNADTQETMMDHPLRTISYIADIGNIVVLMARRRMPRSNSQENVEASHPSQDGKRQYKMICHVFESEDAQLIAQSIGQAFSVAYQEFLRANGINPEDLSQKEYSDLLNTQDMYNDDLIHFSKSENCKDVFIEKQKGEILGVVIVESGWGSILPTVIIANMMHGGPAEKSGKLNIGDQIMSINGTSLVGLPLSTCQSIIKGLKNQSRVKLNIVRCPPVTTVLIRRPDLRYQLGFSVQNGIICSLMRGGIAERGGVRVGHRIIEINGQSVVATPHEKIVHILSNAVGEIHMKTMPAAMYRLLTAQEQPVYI
Eukaryotic translation initiation factor 4E, sequence (P63073 whole entry): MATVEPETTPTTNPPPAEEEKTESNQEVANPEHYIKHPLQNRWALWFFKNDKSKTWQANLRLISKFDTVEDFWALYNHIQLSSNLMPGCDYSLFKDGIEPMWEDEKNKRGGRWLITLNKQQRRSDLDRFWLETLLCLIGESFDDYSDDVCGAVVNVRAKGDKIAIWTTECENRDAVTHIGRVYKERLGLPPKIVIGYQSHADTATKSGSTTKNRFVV
Induced myeloid leukemia cell differentiation protein Mcl-1, sequence (Q07820 whole entry): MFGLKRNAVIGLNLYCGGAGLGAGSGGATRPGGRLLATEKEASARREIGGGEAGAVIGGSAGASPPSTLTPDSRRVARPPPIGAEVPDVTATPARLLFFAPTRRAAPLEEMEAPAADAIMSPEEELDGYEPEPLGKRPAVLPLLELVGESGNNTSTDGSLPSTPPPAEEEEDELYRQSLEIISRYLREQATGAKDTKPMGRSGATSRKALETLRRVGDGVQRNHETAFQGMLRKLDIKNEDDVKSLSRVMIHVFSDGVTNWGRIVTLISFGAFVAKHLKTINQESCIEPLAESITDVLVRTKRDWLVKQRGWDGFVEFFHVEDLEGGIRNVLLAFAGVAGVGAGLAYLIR
Cytochrome P450 2D6, sequence (P10635 whole entry): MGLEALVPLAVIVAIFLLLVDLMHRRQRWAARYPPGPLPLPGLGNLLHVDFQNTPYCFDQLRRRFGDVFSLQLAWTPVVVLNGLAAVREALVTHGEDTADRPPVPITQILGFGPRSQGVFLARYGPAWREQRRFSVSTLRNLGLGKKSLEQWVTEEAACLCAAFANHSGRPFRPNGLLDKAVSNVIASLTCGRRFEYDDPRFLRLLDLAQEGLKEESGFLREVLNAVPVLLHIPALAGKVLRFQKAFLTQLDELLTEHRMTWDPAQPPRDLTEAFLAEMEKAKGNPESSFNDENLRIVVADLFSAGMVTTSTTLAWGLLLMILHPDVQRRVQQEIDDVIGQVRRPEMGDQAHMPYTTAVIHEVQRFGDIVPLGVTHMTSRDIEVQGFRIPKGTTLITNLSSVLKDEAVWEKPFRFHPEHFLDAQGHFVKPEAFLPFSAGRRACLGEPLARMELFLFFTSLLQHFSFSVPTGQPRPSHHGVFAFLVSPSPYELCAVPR
Nonstructural protein 1, sequence (Q194T2 whole entry): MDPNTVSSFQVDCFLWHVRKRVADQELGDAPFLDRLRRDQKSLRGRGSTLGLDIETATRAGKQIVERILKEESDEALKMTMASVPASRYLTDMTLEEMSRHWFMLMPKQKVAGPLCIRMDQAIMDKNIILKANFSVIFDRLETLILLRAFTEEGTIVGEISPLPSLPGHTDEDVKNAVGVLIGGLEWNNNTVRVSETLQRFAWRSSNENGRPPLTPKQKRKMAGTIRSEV
G-protein coupled receptor 55, sequence (Q9Y2T6 whole entry): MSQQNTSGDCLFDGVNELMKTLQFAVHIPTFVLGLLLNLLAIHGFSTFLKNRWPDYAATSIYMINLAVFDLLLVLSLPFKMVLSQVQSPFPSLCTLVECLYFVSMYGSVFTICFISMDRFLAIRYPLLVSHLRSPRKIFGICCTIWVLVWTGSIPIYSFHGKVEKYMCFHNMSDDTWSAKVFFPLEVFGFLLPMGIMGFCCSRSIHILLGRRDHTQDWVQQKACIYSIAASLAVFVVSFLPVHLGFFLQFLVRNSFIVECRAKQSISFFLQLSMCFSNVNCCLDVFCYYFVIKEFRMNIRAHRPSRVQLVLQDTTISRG

SMILES: COc1cc([N+](=O)[O-])cc(/C=C2/SC(=S)N(Cc3ccccc3)C2=O)c1O
- IC50 [1]: 8.82 µM (active)

SMILES: CC(=O)OCC1OC(C#Cc2ccc(F)cc2F)C=CC1OC(C)=O (stereo unspecified)
- AC50 (Cytochrome P450 2D6): 6.31 µM (inconclusive)

SMILES: Cc1c(OC(C)C(=O)NCc2ccncc2)ccc2c3c(c(=O)oc12)CCCC3 (stereo unspecified)
- IC50 [2]: 15.5 µM (not active)
- IC50 (Insulin-degrading enzyme): > 55.9 µM (not active)

SMILES: O=C(O)c1ccc(N2C(=O)/C(=C/c3ccc(-c4ccc([N+](=O)[O-])cc4)o3)C=C2c2ccccc2)cc1
- IC50 (Leucine aminopeptidase): 21.4 µM (active)
- IC50 [3]: 5.56 µM (active)
- IC50 [4]: < 0.5 µM (active)
- IC50 [1]: > 50 µM (active)
- IC50 [5]: > 50 µM (inactive)
- CC50 [6]: 15.8 µM (active)
- IC50 [7]: 0.417 µM (active)
- IC50 (Beta-galactosidase): 33.8 µM (active)
- IC50 [8]: 9.86 µM (active) and 3.93 µM (active)
- IC50 (Nonstructural protein 1): 6.04 µM (active)
- AC50 [9]: 56.7 µM (active)
- EC50 (Protein RecA): > 380 µM (inactive)
